Results: patent US9907879B2, “Haemostatic composition comprising crystalline polyphosphate” (BK Giulini GMBH, priority 2013, dated 2018)

Tests used:
[1] = tested on: thrombin formation in blood plasma; experiment: Assay for measuring thrombin formation in real-time (thrombogram); type: biochemical; conditions: low-thrombocyte plasma; maximum thrombin concentration in thrombogram
Protocol: This method was used to determine the formation of thrombin in blood plasma, triggered in each case by the polyphosphates, in relation to time and to the amounts of polyphosphate used. With the aid of the so-called thrombograms thus obtained, it is possible to draw conclusions concerning the response rate and the extent of thrombin formation. The measurements were carried out in accordance with the instructions from Thrombinoscope BV (manufacturer of the below-mentioned fluorogenic substrate) in a fluorometer (Fluoroscan Ascent, Thermo Scientific) equipped with a dispenser (see F. Müller et al., Cell 2009, 139, 1143-1156 and Supplemental Data). […] Inner filter effects and the substrate consumption were corrected by calibrating each measurement against a fluorescence curve which was determined by means of a mixture of the plasma (80 μl) with a fixed amount of thrombin/α2-macroglobulin complex (Thrombin Calibrator, Thrombinoscope BV). […]
Characteristic of the thrombograms are, in particular, the delay time and the endogenous thrombin potential (ETP). […] ETP refers to the integral of the measured curve of the thrombin concentration. […]
Table 1 below characterizes the investigated phosphates in terms of their water solubility, their chain length, their solid structure and their hemostatic action. Here, water-soluble refers to phosphates having a water solubility of at least 1 g per 100 g of water, as determined by the above-described technique. Here, hemostatic refers to phosphates where the thrombograms, as determined by the above-described technique, have a maximum thrombin concentration of at least 50 nM. As can be clearly read off from Table 1, all the crystalline, water-insoluble polyphosphates according to the invention are notable for a hemostatic action, whereas amorphous, water-soluble polyphosphates and also crystalline mono-, tri- and metaphosphates are not hemostatic.

[2] = Determination of solubility in water; type: physicochemical; conditions: distilled water, 20-22° C., shaken 20 min
Protocol: The polyphosphates to be investigated were each weighed out in a 250 ml Erlenmeyer flask (5 g±0.01 g) and admixed with distilled water (50 ml, 20-22° C.). The mixture thus obtained was shaken at 200 revolutions per minute (rpm, rotary movement) for 20 min. Thereafter, the mixture was transferred to a centrifuge tube and centrifuged at 5000 rpm for 20 min. […] The solubility in g per 100 g of water was then obtained from the formula TR×10, where TR represents the determined dry residue in grams.

| SMILES | Hemostatic [1] | Water-soluble [2] |
| --- | --- | --- |
| O.O.O=P([O-])([O-])O.[Ca+2] [Example V8, dicalcium phosphate dihydrate] | No (hemostatic refers to phosphates where the thrombograms, as determined by the above-described technique, have a maximum thrombin concentration of at least 50 nM) |  |
| O=P([O-])([O-])OP(=O)([O-])OP(=O)([O-])[O-].[Na+].[Na+].[Na+].[Na+].[Na+] [Example V1, sodium triphosphate] | No (hemostatic refers to phosphates where the thrombograms, as determined by the above-described technique, have a maximum thrombin concentration of at least 50 nM) |  |
| O=P1([O-])OP(=O)([O-])OP(=O)([O-])O1.[Na+].[Na+].[Na+] [Example V7, sodium trimetaphosphate] | No (hemostatic refers to phosphates where the thrombograms, as determined by the above-described technique, have a maximum thrombin concentration of at least 50 nM) | Yes (water-soluble refers to phosphates having a water solubility of at least 1 g per 100 g of water) |
